One assay addresses T1, hIP (Homo sapiens, UniProt P43119).
T1 construct: expressed in transfected cells
The experiment in a line: FLIPR calcium signal, hIP. The format is cell-based. The settings on record: HEK-293(EBNA) cells; NA = no activity; read-out: Other Receptors EC50 hIP. Here is the method: Methods for FLIPR™ Studies
HEK-293(EBNA) cells, stably expressing one type or subtype of recombinant human prostaglandin receptors (prostaglandin receptors expressed: hDP/Gqs5; hEP1; hEP2/Gqs5; hEP3A/Gqi5; hEP4/Gqs5; hFP; hIP; hTP), were cultured in 100 mm culture dishes in high-glucose DMEM medium containing 10% fetal bovine serum, 2 mM I-glutamine, 250 μg/ml geneticin (G418) and 200 μg/ml hygromycin B as selection markers, and 100 units/ml penicillin G, 100 μg/ml streptomycin and 0.25 μg/ml amphotericin B.
(b) Calcium Signal Studies on the FLIPR™
Cells were seeded at a density of 5×10^4 cells per well in Biocoat® Poly-D-lysine-coated black-wall, clear-bottom 96-well plates (Becton-Dickinson) and allowed to attach overnight in an incubator at 37° C. Cells were then washed two times with HBSS-HEPES buffer (Hanks Balanced Salt Solution without bicarbonate and phenol red, 20 mM HEPES, pH 7.4) using a Denley Cellwash plate washer (Labsystems). […]
Cells were excited with an Argon laser at 488 nm, and emission was measured through a 510-570 nm bandwidth emission filter (FLIPR™, Molecular Devices, Sunnyvale, Calif.). […] The peak increase in fluorescence intensity was recorded for each well. […] The peak fluorescence change in each drug-containing well was then expressed relative to the controls. […]

Assay [1] has as its target T2, EP2 (Homo sapiens, UniProt P43116). Nature of the assay: Ki competition binding, EP2. More on the design: expressed in transfected cells. The note with it: [3H]PGE2 competition; NA = no activity. Here is the method: (§1) Data from running binding and activity studies on the compounds of the invention were carried out as described in U.S. Pat. No. 7,427,685, the contents of which are incorporated herein by reference.
Competition binding experiments were performed in a medium containing Hank's balanced salt solution, Hepes 20 mM, pH 7.3, membranes (˜60 μg protein) or 2×10^5 cells from HEK 293 cells stably expressing human EP2 receptors, [^3H]PGE2 (10 nM) and various concentrations of test compounds in a total volume of 300 μl. Reaction mixtures were incubated at 23° C. for 60 min, and were filtered over Whatman GF IB filters under vacuum. Filters were washed three times with 5 ml ice-cold buffer containing 50 mM Tris/HCl (PH 7.3). Non-specific binding was estimated in the presence of excess unlabeled PGE2 (10 μM). Binding data fitted to the binding model for a single class of binding sites, using nonlinear regression analysis. IC50 values thus obtained were converted to Ki using the equation of Ki=(IC50/(1+[L]/KD) where [L] represents PGE2 concentration (10 nM) and KD the dissociation constant for [^3H]PGE2 at human EP2 receptors (40 nM).
(§2) Cells Stably Expressing EP1, EP2, EP4, and FP Receptors
(§3) HEK-293 cells stably expressing the human or feline FP receptor, or EP1, EP2, or EP4 receptors were washed with TME buffer, scraped from the bottom of the flasks, and homogenized for 30 sec using a Brinkman PT 10/35 polytron. TME buffer was added to achieve a final 40 ml volume in the centrifuge tubes (the composition of TME is 100 mM TRIS base, 20 mM MgCl2, […]; ION HCl is added to achieve a pH of 7.4).
(§4) The cell homogenate was centrifuged at 19000 rpm for 20 min at 4° C. using a Beckman Ti-60 rotor. The resultant pellet was resuspended in TME buffer to give a final 1 mg/ml protein concentration, as determined by Biorad assay. Radioligand binding competition assays vs. [^3H-]17-phenyl PGF2α (5 nM) were performed in a 100 μl volume for 60 min. Binding reactions were started by adding plasma membrane fraction. The reaction was terminated by the addition of 4 ml ice-cold TRIS-HCl buffer and rapid filtration through glass fiber GF/B filters using a Brandel cell harvester. The filters were washed 3 times with ice-cold buffer and oven dried for one hour.
(§5) [^3H-] PGE2 (specific activity 180 Ci mmol) was used as the radio ligand for EP receptors. [^3H] 17-phenyl PGF2α was employed for FP receptor binding studies. Binding studies employing EP1, EP2, EP4 and FP receptors were performed in duplicate in at least three separate experiments. A 200 μl assay volume was used. Incubations were for 60 min at 25° C. and were terminated by the addition of 4 ml of ice-cold 50 mM TRIS-HCl, followed by rapid filtration through Whatman GF/B filters and three additional 4 ml washes in a cell harvester (Brandel). Competition studies were performed using a final concentration of 5 nM [^3H]-PGE2, or 5 nM [^3H] 17-phenyl PGF2α and non-specific binding determined with 10^−5M of unlabeled PGE2, or 17-phenyl PGF2α, according to receptor subtype studied.

For assay [2], the target named is T3, EP4 (Homo sapiens, UniProt P35408). Nature of the assay: Radioligand binding, EP4. Further details: expressed in transfected cells; membrane fraction. The settings on record: [3H]PGE2 competition. Here is the method: as §1, §2, §3, §4, §5
T3 sequence (P35408 whole entry): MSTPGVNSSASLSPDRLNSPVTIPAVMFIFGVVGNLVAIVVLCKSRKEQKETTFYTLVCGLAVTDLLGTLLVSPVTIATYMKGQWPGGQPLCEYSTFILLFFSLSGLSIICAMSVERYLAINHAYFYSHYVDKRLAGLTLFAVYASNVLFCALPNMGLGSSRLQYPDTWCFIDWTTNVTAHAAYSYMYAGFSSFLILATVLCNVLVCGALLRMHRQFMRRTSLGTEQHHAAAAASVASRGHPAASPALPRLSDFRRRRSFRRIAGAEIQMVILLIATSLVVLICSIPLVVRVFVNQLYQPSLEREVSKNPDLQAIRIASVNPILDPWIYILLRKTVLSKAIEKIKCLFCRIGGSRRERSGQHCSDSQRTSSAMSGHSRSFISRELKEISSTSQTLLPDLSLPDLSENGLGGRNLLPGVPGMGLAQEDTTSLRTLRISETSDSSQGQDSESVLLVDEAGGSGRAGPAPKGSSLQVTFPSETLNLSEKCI
Assay [3] has as its target T2, EP2. The experiment in a line: cAMP assay, EP2. Format: cell-based. More on the design: expressed in transfected cells; host or cells: HEK-EBNA cells. The settings on record: HEK-EBNA cells expressing EP2. The method, then: (§6) A 384-well drug plate was prepared to contain 6 test compounds, PGE2 and cAMP in 16 serial dilutions in triplicate, using a Biomek station. HEK-EBNA cells expressing a target PG receptor subtype (EP2 or EP4) were suspended in a stimulation buffer (HBSS, 0.1% BSA, 0.5 mM IBMX and 5 mM HEPES, pH 7.4) in a density of 10^4 cells/5 μL. The reaction was initiated by mixing 5 μL drug dilutions with 5 μL of HEK-EBNA cells in a well, carried out for 30 min at room temperature, and followed by the addition of 5 μL anti-cAMP acceptor beads in the control buffer with Tween-20 (25 mM NaCl, 0.03% Tween-20, 5 mM HEPES, pH 7.4). After 30 min in the dark at room temperature, the mixtures were incubated with 15 μL biotinylated-cAMP/strepavidin donor beads in Lysis/Detection buffer (0.1% BSA, 0.3% Tween-20 and 5 mM HEPES, pH 7.4) for 45 min at the room temperature. Fluorescence changes were read using a Fusion-alpha HT microplate reader.
Background: cAMP levels reflect the balance of adenylyl cyclase and phosphodiesterase activity.

Assay [4] concerns the target T3, EP4. Nature of the assay: cAMP assay, EP4. The format is cell-based. More on the design: expressed in transfected cells; host or cells: HEK-EBNA cells. The settings on record: HEK-EBNA cells expressing EP4. The method, then: as §6

T2 sequence (P43116 whole entry): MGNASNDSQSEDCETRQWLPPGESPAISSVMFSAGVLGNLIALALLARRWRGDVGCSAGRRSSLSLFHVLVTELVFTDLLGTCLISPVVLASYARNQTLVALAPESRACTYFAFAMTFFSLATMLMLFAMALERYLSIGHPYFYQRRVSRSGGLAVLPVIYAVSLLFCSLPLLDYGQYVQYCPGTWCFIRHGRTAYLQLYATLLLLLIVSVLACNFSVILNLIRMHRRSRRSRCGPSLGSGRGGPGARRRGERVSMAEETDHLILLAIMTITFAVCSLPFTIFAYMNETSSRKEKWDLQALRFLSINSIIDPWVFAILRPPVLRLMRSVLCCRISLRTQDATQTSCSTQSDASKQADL
T1 sequence (P43119 whole entry): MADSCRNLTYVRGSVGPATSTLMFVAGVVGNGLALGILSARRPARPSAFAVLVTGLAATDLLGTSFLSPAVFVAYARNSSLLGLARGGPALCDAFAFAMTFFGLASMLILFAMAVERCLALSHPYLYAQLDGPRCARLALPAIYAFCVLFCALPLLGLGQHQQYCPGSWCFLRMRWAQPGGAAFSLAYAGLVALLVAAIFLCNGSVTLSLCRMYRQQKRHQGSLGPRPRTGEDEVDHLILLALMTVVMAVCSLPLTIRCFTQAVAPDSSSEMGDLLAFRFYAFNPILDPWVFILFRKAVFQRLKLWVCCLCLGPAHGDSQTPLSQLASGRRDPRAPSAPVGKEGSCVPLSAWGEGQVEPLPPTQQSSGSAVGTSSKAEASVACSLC

In the case of `O=C(O)c1ccc(CNC(=O)C2CCCC2Cc2cccc(C(F)(F)F)c2)cc1` (single isomer, unassigned) [Example 6, 4-((2-(3-(Trifluoromethyl)benzyl)cyclopentanecarboxamido)methyl)benzoic Acid], the 50% effective concentration (EC50) is more than 10000 nM at hIP, 10 nM on EP2 [3] and more than 10000 nM on EP4 [4]. The Ki on EP2 [1] worked out at 733 nM; at EP4 [2] it was 18 nM.

Turning to `COc1cc(CC2=C(C(=O)NCc3ccc(C(=O)O)cc3)CCCCC2)cc(OC)c1` [Example 11, 4-((2-(3,5-Dimethoxybenzyl)cyclohept-1-enecarboxamido)methyl)benzoic Acid], the EC50 on hIP is more than 10000 nM; on EP2 [3], 48 nM; at EP4 [4] it was more than 10000 nM. In addition, the Ki stood at 2780 nM at EP2 [1] and 1 nM at EP4 [2].

By EC50 is commonly meant the concentration at which the effect is half-maximal. Broadly, the Ki is the equilibrium dissociation constant of an inhibitor or competing ligand from its target.
